This is an account of results in PubChem BioAssay (NCI).

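Five compound concentrations were applied to cells in 96-well plates for 48 hours; endpoints were derived by simple linear interpolation of the resulting dose-response curve. Here, GI50 denotes the concentration required for 50% inhibition of growth. TGI marks complete inhibition of growth.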

Common to all, as to experiment: growth of human tumour cells (NCI), 48 h
The test system of experiment [1] is HCT-15 colon.
Experiment [2] concerns SN12C renal.
For experiment [3], the system named is HCT-116 colon.
Experiment [4] concerns 786-0 renal.
Experiment [5] concerns NCI-H226 lung.
The test system of experiment [6] is HOP-92 NSCLC.
Experiment [7] relates to OVCAR-3 ovarian.
The test system of experiment [8] is IGROV1 ovarian.
Experiment [9] has as its system MDA-MB-435.
Experiment [10] relates to PC-3 prostate.

`CO[C@H]1C[C@@H]2CC[C@@H](C)[C@@](O)(O2)C(=O)C(=O)N2CCCC[C@H]2C(=O)O[C@H]([C@H](C)C[C@@H]2CC[C@@H](OP(C)(C)=O)[C@H](OC)C2)CC(=O)[C@H](C)/C=C(\C)[C@@H](O)[C@@H](OC)C(=O)[C@H](C)C[C@H](C)/C=C/C=C/C=C/1C`: the GI50 in [1] is 1.21 µM; in experiment [2], 11 µM; in experiment [3], 11.8 µM; in experiment [4], 8.92 µM; in [5] it was 1.71 µM; in experiment [6], 0.106 µM. Also, the GI50 in experiment [7] is 11.1 µM; in [8], below 0.01 µM; in experiment [9], 1.41 µM; in experiment [10], below 0.0419 µM. For the same compound, the TGI in experiment [1] is 29.5 µM; in [2], 25.8 µM; in experiment [3] it was 24.8 µM; in [4] it was 22.7 µM; in experiment [5], 24.2 µM; in experiment [6] it was 17.2 µM. The TGI in experiment [7] was determined as 23.3 µM; in experiment [8], 18.3 µM; in [9], 23.9 µM; in [10], 18.8 µM.

On to `C=CC(=O)N1CCC([C@@H]2CCNc3c(C(N)=O)c(-c4ccc(Oc5ccccc5)cc4)nn32)CC1`, for which the GI50 in experiment [1] was 15.3 µM; in experiment [2] it was 12.1 µM; in experiment [3], 17.1 µM; in experiment [4], 12.9 µM; in experiment [5], 11.9 µM; in experiment [6], 13.6 µM. For the same compound, the GI50 in [7] is 11 µM; in experiment [8], 0.912 µM; in [9], 17.8 µM; in [10] it was 20.5 µM. Besides, the TGI is 46.5 µM in [1]; 80.4 µM in [2]; 39.3 µM in [3]; 53.1 µM in [4]; 42.5 µM in experiment [5]; 43.7 µM in experiment [6]. The TGI in experiment [7] came to 32 µM; in [8], 16.7 µM; in experiment [9], 44.6 µM; in experiment [10] it was 69.3 µM.

As for `COc1cc2nc(N3CCCC3)nc(Nc3ccccc3)c2cc1OC`, the GI50 was 0.68 µM in [1]; 1.72 µM in experiment [2]; 0.58 µM in experiment [3]; 1.71 µM in [4]; 1.97 µM in [5]; 1.39 µM in experiment [6]. The GI50 was 1.8 µM in experiment [7], 1.38 µM in [8], 1.66 µM in experiment [9] and 1.71 µM in experiment [10]. For the same compound, the TGI in experiment [1] was found to be 2.04 µM; in [2] it was 3.24 µM; in [3], 2.44 µM; in [4], 3.53 µM; in [5], 4.12 µM; in experiment [6], 2.99 µM. Besides, the TGI stood at 3.3 µM in experiment [7], 2.84 µM in experiment [8], 3.09 µM in experiment [9] and 3.45 µM in experiment [10].

With `N#Cc1cccc(/C=C(/C(=O)c2ccccc2)c2ccccc2)c1`, the GI50 in experiment [1] is 3.4 µM; in experiment [2], 3.85 µM; in [3], 3.06 µM; in experiment [4], 6.73 µM; in [5], 6.45 µM; in experiment [6] it was 2.6 µM. The GI50 in experiment [7] was 3.63 µM; in [8], 4.27 µM; in [9] it was 3 µM; in experiment [10] it was 6.27 µM. Also, the TGI in [1] stood at 22.8 µM; in experiment [2], 25.9 µM; in experiment [3] it was 11.3 µM; in [4], 23.8 µM; in experiment [5], 26.7 µM; in [7], 11.8 µM. Moreover, the TGI in experiment [8] was 25.3 µM; in experiment [9] it was 11 µM; in [10] it was 36.6 µM.

Regarding `CNNC(=N\S(=O)(=O)c1cc(C(=O)Nc2ccc(Cl)cc2)c(Cl)cc1SCc1ccccc1)/N=C/c1ccc([N+](=O)[O-])s1`, the GI50 in experiment [1] is 22.5 µM; in experiment [2], 6.6 µM; in experiment [3] it was 2.3 µM; in experiment [4], above 100 µM; in [5], above 100 µM; in [6], 4.54 µM. Besides, the GI50 was above 100 µM in experiment [7], above 70.1 µM in [8], 23.4 µM in experiment [9] and above 100 µM in experiment [10]. Also, the TGI in experiment [1] was above 100 µM; in experiment [2] it was above 100 µM; in experiment [3] it was above 100 µM; in experiment [4], above 100 µM; in experiment [5] it was above 100 µM; in [6], 62.2 µM. Further, the TGI in [7], in experiment [8], in [9] and in experiment [10] was above 100 µM in each case.

`CC1(C)N=C(N)N=C(N)N1c1cccc(CCCCc2ccccc2)c1`: the GI50 in [1] is 1.73 µM; in [2], 0.427 µM; in experiment [3], 0.0501 µM; in experiment [4] it was 0.518 µM; in experiment [5], 2.35 µM; in experiment [6] it was 0.326 µM. The GI50 was 0.35 µM in experiment [7], 0.135 µM in experiment [8], 0.0616 µM in [9] and 0.0497 µM in experiment [10]. In addition, the TGI stood at 21.7 µM in experiment [1]; 12.3 µM in experiment [2]; 17 µM in [3]; 16.4 µM in [4]; 24.5 µM in experiment [5]; 4.44 µM in experiment [6]. The TGI was 8.74 µM in experiment [7], 10.1 µM in experiment [8], 11.9 µM in [9] and 3.09 µM in experiment [10].

`c1ccc(-c2nnc(Nc3ccc4c(c3)OCCO4)o2)c(NCc2ccncc2)c1`: the GI50 in experiment [1] was 0.0369 µM; in experiment [2] it was 0.0579 µM; in experiment [3], 0.0282 µM; in experiment [4], 0.0756 µM; in experiment [5], 0.0264 µM; in experiment [6], 0.286 µM. Moreover, the GI50 is 0.021 µM in [7], 0.0624 µM in experiment [8], below 0.01 µM in experiment [9] and 0.0301 µM in [10]. Besides, the TGI in experiment [1] is above 100 µM; in [2] it was above 64.6 µM; in experiment [3], 11.8 µM; in experiment [4] it was above 100 µM; in experiment [5], 0.106 µM; in [6] it was 6.87 µM. In addition, the TGI in experiment [7] is 0.0504 µM; in experiment [8], 19.1 µM; in experiment [9], 0.0171 µM; in [10], above 52.7 µM.

Take `COc1ccc2[nH]c(=O)c(/C=C/C(=O)/C=C/c3ccc(O)c(OC)c3)cc2c1`: the GI50 in [1] was 1.41 µM; in experiment [2] it was 1.89 µM; in experiment [3] it was 0.164 µM; in experiment [4], 1.59 µM; in experiment [5] it was 2.14 µM; in experiment [6], 1.84 µM. The GI50 is 1.18 µM in experiment [7], 1.77 µM in experiment [8], 0.301 µM in experiment [9] and 1.83 µM in [10]. Moreover, the TGI was 3.81 µM in experiment [1]; 4.49 µM in experiment [2]; 0.338 µM in experiment [3]; 3.17 µM in experiment [4]; 6.07 µM in [5]; 5.06 µM in experiment [6]. For the same compound, the TGI in experiment [7] is 2.55 µM; in experiment [8] it was 4.24 µM; in [9] it was 1.3 µM; in [10], 4.94 µM.
